“And” between values parts separate entries of the source, which are not always exact repeats. Identical values can stand only once.
How the values were obtained:
Assay type in all cases: in vivo, rat
[1] = tested on: heme oxygenase-1 (HO-1) expression; assay: 14-day UUO model: RT-PCR for HO-1
Description: (§1) Sprague-Dawley rats underwent unilateral ureteral ligation (UUO) with 4-0 silk suture through a midline abdominal incision under sterile conditions. Ureteral obstruction was carried out by ligating the left ureter at the end of lower ureter, just above the ureterovesical junction.
(§2) SS-31 (1 mg/kg or 3 mg/kg; n=8) was administered intraperitoneally, one day prior to UUO and continuing for 14 days. A separate group of animals was given saline, as a vehicle control (n=16).
Polymerase Chain Reaction Analysis: PCR for heme oxygenase-1 (HO-1) isolated from kidneys was performed as follows. Rat kidneys were harvested and were kept at −80° C. until use. Total RNA was extracted using the Trizol®-Chloroform extraction procedure. mRNA was purified using the Oligotex mRNA extraction kit (Qiagen, Valencia, Calif.) according to manufacturer's instructions. mRNA concentration and purity were determined by measuring absorbance at 260 nm. RT-PCR was preformed using Qiagen One-step PCR kit (Qiagen, Valencia, Calif.). PCR was performed in an automated thermal cycler ThermoHybrid, PX2 with an initial activation step for 15 min at 95° C. followed by 35 cycles of denaturation for 45 s at 94° C., annealing for 30 s at 60° C., extension for 60 s at 72° C. […] Bands on gels were visualized by ethidium bromide staining and analyzed using Image J densitometric analysis software. […]

[2] = tested on: ARI caused by cisplatin; assay: Cisplatin-induced ARI model
Description: Sprague-Dawley rats (350-400 g) were given a single dose of cisplatin (7 mg/kg) intraperitoneally on Day 1. One group of rats (n=8) received one dose of SS-31 (3 mg/kg) subcutaneously just prior to cisplatin administration, and repeated once daily for 3 more days. A second group of rats (n=8) […] received an equal volume of saline on the day of cisplatin administration and for 3 more days after.
Experimental Protocol: Rats had free access to tap water and standard rat chow prior to cisplatin administration. Control blood samples were obtained from the tail vein before cisplatin administration. Saline or SS-31 (dissolved in saline) was administered to the rats subcutaneously prior to cisplatin injection. Cisplatin (dissolved in saline) was administered at a dose of 7 mg/kg intraperitoneally. All rats then received either saline or SS-31 (3 mg/kg) daily for 3 days. Rat were placed in metabolic cages for the last 24 hours for urine collection. At the end of this period, a blood sample was withdrawn from the tail vein. After this, the animals were anesthetized, kidneys were removed, and the animals euthanized.
Renal function: Renal function was assessed by blood urea nitrogen (BUN), serum creatinine, urine creatinine, and urine protein (Beckman ALX Chemical Analyzer). GFR was estimated from creatinine clearance which was determined from urinary creatinine, urine flow rate, and serum creatinine.
Renal Histology: Kidneys were fixed in 10% neutral-buffered formalin and embedded in paraffin wax. Three micron sections were stained with periodic acid-Schiff (PAS) and analyzed by light microscopy.

[3] = tested on: contrast induced nephropathy in diabetic animal model; assay: CIN in diabetic (HFD/STZ) rats with iohexol, Experiment 3; details: individual rats of Group C
Description: In this experiment, 20 SD rats were fed with high fat diet for 6 weeks, followed by the injection with low dose streptozotocin (35 mg/kg). After 15 more weeks, the rats were subjected to contrast induced nephropathy study. In addition, we included a normal control group was included in which 9 rats from the same batch on regular chow diet were subjected to the same protocol.
[…] The creatinine clearance was calculated based on the Scr, Ucr and urinary volume. Samples were analyzed by students t-test and differences were considered significant at p<0.05.

[4] = tested on: ARI caused by ureteral obstruction (UUO); assay: 14-day UUO model: renal histology (trichrome, interstitial volume); details: obstructed kidney
Description: as §1, §2
Renal Histology: Trichrome sections of paraffin embedded specimens were examined by a board-certified pathologist (SVS, renal pathology specialist), and fibrosis scored on a scale of 0-+++.

[5] = tested on: radiocontrast dye-induced renal failure; assay: CIN, indomethacin/L-NAME model, Experiment 2
Description: Animal model: The same indomethacin and L-NAME model described above was used in this experiment. In this model, impaired renal function was induced by the administration of indomethacin (8 mg/kg) and L-NAME (10 mg/kg).
Renal function: Renal function was assessed by determining serum and urinary creatinine using DICT-kit from Bioassays Systems (Hayward, Calif.) at baseline and 26 h following dye administration. Urinary protein concentration was also determined at baseline and 26 h following dye administration by BCA Protein Assay kit (Thermo Scientific, Rockford, Ill.). Samples were analyzed by students t-test and differences were considered significant at p<0.05.
Renal Histology: Kidneys were fixed in 10% neutral-buffered formalin and embedded in paraffin wax. Three micron sections were stained with hematoxylin-eosin (H&E) and periodic acid-Schiff (PAS) and analyzed by light microscopy by a board certified pathologist.

[6] = 3 days after cisplatin, 3 mg/kg s.c. daily
[7] = 26 h post contrast dye vs baseline

## D-Arg-2′6′Dmt-Lys-Phe-NH2 [SS-31]
[1]
  HO-1 expression in the obstructed kidney: decreased HO-1 expression
[2]; 3 days after cisplatin
  rats with no change in serum creatinine (<0.4 mg/dl): 5 out of 8
[2]; [6]
  BUN: 29.3 ± 25 mg/dL
  Kidney weight: 1.6 ± 0.2 g
  body weight: 384 ± 28 g
  serum creatinine: 0.8 ± 0.73 mg/dL
[2]; before cisplatin treatment
  BUN: 15.5 ± 1.7 mg/dL
  body weight: 376.9 ± 5.2 g
  serum creatinine: 0.4 ± 0.09 mg/dL
[3]; T22h post dye
  Scr T22h: 25 μM (2×) and 26 μM and 24 μM and 27 μM and 28 μM and 30 μM and 35 μM and 19 μM
[3]; T22h vs Tb
  Scr % change T22: 0% and 4% and −11% and 9% and −7% and 17% and 20% and 40% and −34%
[3]; baseline
  Scr Tb: 25 μM (4×) and 27 μM and 23 μM and 29 μM (2×) and 24 μM
[4]
  trichrome staining (fibrosis), cortex: 0-trace
  trichrome staining (fibrosis), medulla: tr− 1+
[4]; 1 mg/kg i.p. daily
  medullary interstitial volume: 54.9±2.3%
[4]; higher dose
  medullary interstitial volume: also effective
[5]; 1 day (26 h post dye)
  SCr: 0.73 ± 0.04 mg/dL
  U protein BCA: 11.76 ± 2.71 mg/mL
  Ucr: 38.12 ± 8.19 mg/dL
[5]; [7]
  Scr increase: 9%
  urinary protein concentration increase: 1.7 fold
[5]; 26 h post dye
  rats protected from contrast dye induced nephropathy (Scr increase less than 25% at 26 h post dye): Five out of seven
[5]; Baseline
  SCr: 0.67 ± 0.09 mg/dL
  U protein BCA: 4.28 ± 1.15 mg/mL
  Ucr: 15.54 ± 3.87 mg/dL
[5]; dye-injected
  PAS staining of kidney: intact brush borders and normal glomeruli
